The test system of data set [1] is JAK-dependent cytokine receptors. Description: Integrated modeling: calculated cytokine receptor inhibitory concentrations (ICxx). On the set-up: species or system human. The note with it: calculated ICxx at clinically meaningful doses, Figure 1.
Description: An integrated modeling approach was applied to determine cytokine receptor inhibition profiles. Whole blood IC50 values were converted to unbound values (IC50,u) using measured blood‐to‐plasma ratios and measured fu values, as shown in Equation 2:(2) IC50,u=IC50/blood:plasma ratio×fu
The subject of a further data set is NK cell counts. The note with it: RA; upadacitinib 6 mg BID; week 12; cited from earlier work.

Structures are written as SMILES.

Consider `CC[C@@H]1CN(C(=O)NCC(F)(F)F)C[C@@H]1c1cnc2cnc3[nH]ccc3n12` [Upadacitinib], for which the “Inhibition (ICxx) of JAK1/JAK2-mediated (IFNγ, G-CSF) and JAK2-mediated (TPO, IL-3, GM-CSF) cytokine receptors vs other JAK inhibitors” value in data set [1] was “numerically greater”. Moreover, the “change from baseline in NK cell counts” value with NK cell counts was “approximately −50 cells/mm^3”.

Source of the values: article PMC6857076 (Pharmacology Research & Perspectives, 2019).
